Experimental data from US8802597B2, “Herbicidal pyrimidines” (E I du Pont de Nemours and Company, priority 2003, dated 2014).

What was measured:
Format in all cases: in vivo
soybean (Glycine max) = assay: Test C pre/postemergence
Excerpt: (§1) Seeds or nutlets of plant species selected from bermudagrass (Cynodon dactylon), Surinam grass (Brachiaria decumbens), cocklebur (Xanthium strumarium), corn (Zea mays), crabgrass (Digitaria sanguinalis), woolly cupgrass (Eriochloa villosa), giant foxtail (Setaria faberii), goosegrass (Eleusine indica), johnsongrass (Sorghum halepense), kochia (Kochia scoparia), lambsquarters (Chenopodium album), morningglory (Ipomoea coccinea), eastern black nightshade (Solanum ptycanthum), yellow nutsedge (Cyperus esculentus), pigweed (Amaranthus retroflexus), common ragweed (Ambrosia elatior), soybean (Glycine max), common (oilseed) sunflower (Helianthus annuus), and velvetleaf (Abutilon theophrasti) were planted and treated preemergence with test chemicals formulated in a non-phytotoxic solvent mixture which included a surfactant.
(§2) At the same time, plants selected from these crop and weed species and also winter barley (Hordeum vulgare), blackgrass (Alopecurus myosuroides), canarygrass (Phalaris minor), chickweed (Stellaria media), downy brome (Bromus tectorum), green foxtail (Setaria viridis), Italian ryegrass (Lolium multiflorum), wheat (Triticum aestivum), wild oat (Avena fatua) and windgrass (Apera spica-venti) were treated with postemergence applications of some of the test chemicals formulated in the same manner. Plants ranged in height from 2 to 18 cm (1- to 4-leaf stage) for postemergence treatments. Plant species in the flooded paddy test consisted of rice (Oryza sativa), umbrella sedge (Cyperus difformis), duck salad (Heteranthera limosa) and barnyardgrass (Echinochloa crus-galli) grown to the 2-leaf stage for testing. Treated plants and controls were maintained in a greenhouse for 12 to 14 days, after which time all species were compared to controls and visually evaluated. Plant response ratings, summarized in Table C, are based on a scale of 0 to 100 where 0 is no effect and 100 is complete control. A dash (-) response means no test result.

[1] = test system: goosegrass (Eleusine indica); assay: Test C pre/postemergence
Excerpt: as §1, §2

corn (Zea mays) = assay: Test C pre/postemergence
Excerpt: as §1, §2

[2] = test system: lambsquarters (Chenopodium album); assay: Test C pre/postemergence
Excerpt: as §1, §2

[3] = test system: chickweed (Stellaria media); assay: Test C postemergence; settings: for Plant response rating, Chickweed: scale 0 to 100
Excerpt: as §1, §2

[4] = Postemergence, 62 g ai/ha, scale 0 to 100 (0 no effect, 100 complete control)
[5] = Postemergence, 125 g ai/ha, scale 0 to 100 (0 no effect, 100 complete control)
[6] = Postemergence, 250 g ai/ha, scale 0 to 100
[7] = Postemergence, 500 g ai/ha, scale 0 to 100
[8] = Preemergence, 62 g ai/ha, scale 0 to 100, 0 no effect, 100 complete control
[9] = Preemergence, 125 g ai/ha, scale 0 to 100
[10] = Preemergence, 250 g ai/ha, scale 0 to 100
[11] = Preemergence, 500 g ai/ha, scale 0 to 100
[12] = 62 g ai/ha, scale 0 to 100 (0 no effect, 100 complete control)
[13] = 125 g ai/ha, scale 0 to 100 (0 no effect, 100 complete control)

## COC(=O)c1nc(C2CC2C)nc(N)c1Br (stereo not shown) [Compound 28]
Soybean (Glycine max); [4]
  Soybean plant response rating: 75
Soybean (Glycine max); [5]
  Soybean plant response rating: 85
Soybean (Glycine max); [6]
  Plant response rating, Soybean: 95
Soybean (Glycine max); [7]
  Plant response rating, Soybean: 95
Soybean (Glycine max); [8]
  Plant response rating, Soybean: 0
Soybean (Glycine max); [9]
  Plant response rating, Soybean: 45
Soybean (Glycine max); [10]
  Plant response rating, Soybean: 65
Soybean (Glycine max); [11]
  Plant response rating, Soybean: 90
[1]; [4]
  Goosegrass plant response rating: 0
[1]; [5]
  Goosegrass plant response rating: 0
[1]; [6]
  Plant response rating, Goosegrass: 0
[1]; [7]
  Plant response rating, Goosegrass: 15
[1]; [8]
  Plant response rating, Goosegrass: 0
[1]; [9]
  Plant response rating, Goosegrass: 0
[1]; [10]
  Plant response rating, Goosegrass: 0
[1]; [11]
  Plant response rating, Goosegrass: 20
Corn (Zea mays); [4]
  Corn plant response rating: 0
Corn (Zea mays); [5]
  Corn plant response rating: 0
Corn (Zea mays); [6]
  Plant response rating, Corn: 0
Corn (Zea mays); [7]
  Plant response rating, Corn: 0
Corn (Zea mays); [8]
  Plant response rating, Corn: 0
Corn (Zea mays); [9]
  Plant response rating, Corn: 0
Corn (Zea mays); [10]
  Plant response rating, Corn: 0
Corn (Zea mays); [11]
  Plant response rating, Corn: 0
[2]; [4]
  Lambsquarters plant response rating: 60
[2]; [5]
  Lambsquarters plant response rating: 75
[2]; [6]
  Plant response rating, Lambsquarters: 85
[2]; [7]
  Plant response rating, Lambsquarters: 95
[2]; [8]
  Plant response rating, Lambsquarters: 95
[2]; [9]
  Plant response rating, Lambsquarters: 100
[2]; [10]
  Plant response rating, Lambsquarters: 100
[2]; [11]
  Plant response rating, Lambsquarters: 100
[3]; [12]
  Chickweed plant response rating: 0
[3]; [13]
  Chickweed plant response rating: 0
[3]; 250 g ai/ha
  Plant response rating, Chickweed: 15
[3]; 500 g ai/ha
  Plant response rating, Chickweed: 20

## CCOC(=O)c1nc(C2CC2)nc(NN)c1Br [Compound 42]
Soybean (Glycine max); Glycine max, post-emergence, Postemergence, 31 g ai/ha, read-out: Plant response rating (scale of 0 to 100), Soybean
  plant injury at 31 g/ha: 10%
Soybean (Glycine max); Glycine max, post-emergence, Postemergence, 62 g ai/ha, scale 0 to 100 (0 no effect, 100 complete control), read-out: Soybean plant response rating
  plant injury at 62 g/ha: 30%
Soybean (Glycine max); Glycine max, post-emergence, Postemergence, 125 g ai/ha, scale 0 to 100 (0 no effect, 100 complete control), read-out: Soybean plant response rating
  plant injury at 125 g/ha: 40%
Soybean (Glycine max); Glycine max, post-emergence, Postemergence, 250 g ai/ha, scale 0 to 100, read-out: Plant response rating, Soybean
  plant injury at 250 g/ha: 70%
[1]; Eleusine indica, post-emergence, Postemergence, 31 g ai/ha, read-out: Plant response rating (scale of 0 to 100), Goosegrass
  pest or weed control at 31 g/ha: 0%
[1]; Eleusine indica, post-emergence, Postemergence, 62 g ai/ha, scale 0 to 100 (0 no effect, 100 complete control), read-out: Goosegrass plant response rating
  pest or weed control at 62 g/ha: 0%
[1]; Eleusine indica, post-emergence, Postemergence, 125 g ai/ha, scale 0 to 100 (0 no effect, 100 complete control), read-out: Goosegrass plant response rating
  pest or weed control at 125 g/ha: 0%
[1]; Eleusine indica, post-emergence, Postemergence, 250 g ai/ha, scale 0 to 100, read-out: Plant response rating, Goosegrass
  pest or weed control at 250 g/ha: 0%
Corn (Zea mays); Zea mays, post-emergence, Postemergence, 31 g ai/ha, read-out: Plant response rating (scale of 0 to 100), Corn
  Corn plant response rating (crop injury, 0 = no effect, 100 = complete kill) at 31 g/ha: 0%
Corn (Zea mays); Zea mays, post-emergence, Postemergence, 62 g ai/ha, scale 0 to 100 (0 no effect, 100 complete control), read-out: Corn plant response rating
  Corn plant response rating (crop injury, 0 = no effect, 100 = complete kill) at 62 g/ha: 0%
Corn (Zea mays); Zea mays, post-emergence, Postemergence, 125 g ai/ha, scale 0 to 100 (0 no effect, 100 complete control), read-out: Corn plant response rating
  Corn plant response rating (crop injury, 0 = no effect, 100 = complete kill) at 125 g/ha: 0%
Corn (Zea mays); Zea mays, post-emergence, Postemergence, 250 g ai/ha, scale 0 to 100
  Corn plant response rating (crop injury, 0 = no effect, 100 = complete kill) at 250 g/ha: 0%
[2]; Chenopodium album, post-emergence, Postemergence, 31 g ai/ha, read-out: Plant response rating (scale of 0 to 100), Lambsquarters
  pest or weed control at 31 g/ha: 10%
[2]; Chenopodium album, post-emergence, Postemergence, 62 g ai/ha, scale 0 to 100 (0 no effect, 100 complete control), read-out: Lambsquarters plant response rating
  pest or weed control at 62 g/ha: 20%
[2]; Chenopodium album, post-emergence, Postemergence, 125 g ai/ha, scale 0 to 100 (0 no effect, 100 complete control), read-out: Lambsquarters plant response rating
  pest or weed control at 125 g/ha: 20%
[2]; Chenopodium album, post-emergence, Postemergence, 250 g ai/ha, scale 0 to 100, read-out: Plant response rating, Lambsquarters
  pest or weed control at 250 g/ha: 25%
[3]; Stellaria media, post-emergence, 31 g ai/ha, read-out: Plant response rating (scale of 0 to 100), Chickweed
  pest or weed control at 31 g/ha: 0%
[3]; Stellaria media, post-emergence, 62 g ai/ha, scale 0 to 100 (0 no effect, 100 complete control), read-out: Chickweed plant response rating
  pest or weed control at 62 g/ha: 0%
[3]; Stellaria media, post-emergence, 125 g ai/ha, scale 0 to 100 (0 no effect, 100 complete control), read-out: Chickweed plant response rating
  pest or weed control at 125 g/ha: 0%
[3]; Stellaria media, post-emergence, 250 g ai/ha, scale 0 to 100, read-out: Plant response rating, Chickweed
  pest or weed control at 250 g/ha: 10%

## Nc1nc(C2CC2)nc(C=NO)c1Br [Compound 27]
Soybean (Glycine max); [4]
  Soybean plant response rating: 30
Soybean (Glycine max); [5]
  Soybean plant response rating: 45
Soybean (Glycine max); [6]
  Plant response rating, Soybean: 85
Soybean (Glycine max); [7]
  Plant response rating, Soybean: 95
Soybean (Glycine max); [8]
  Plant response rating, Soybean: 0
Soybean (Glycine max); [9]
  Plant response rating, Soybean: 0
Soybean (Glycine max); [10]
  Plant response rating, Soybean: 20
Soybean (Glycine max); [11]
  Plant response rating, Soybean: 75
[1]; [4]
  Goosegrass plant response rating: 0
[1]; [5]
  Goosegrass plant response rating: 0
[1]; [6]
  Plant response rating, Goosegrass: 0
[1]; [7]
  Plant response rating, Goosegrass: 0
[1]; [8]
  Plant response rating, Goosegrass: 0
[1]; [9]
  Plant response rating, Goosegrass: 0
[1]; [10]
  Plant response rating, Goosegrass: 0
[1]; [11]
  Plant response rating, Goosegrass: 20
Corn (Zea mays); [4]
  Corn plant response rating: 0
Corn (Zea mays); [5]
  Corn plant response rating: 0
Corn (Zea mays); [6]
  Plant response rating, Corn: 0
Corn (Zea mays); [7]
  Plant response rating, Corn: 0
Corn (Zea mays); [8]
  Plant response rating, Corn: 0
Corn (Zea mays); [9]
  Plant response rating, Corn: 10
Corn (Zea mays); [10]
  Plant response rating, Corn: 15
Corn (Zea mays); [11]
  Plant response rating, Corn: 25
[2]; [4]
  Lambsquarters plant response rating: 20
[2]; [5]
  Lambsquarters plant response rating: 20
[2]; [6]
  Plant response rating, Lambsquarters: 25
[2]; [7]
  Plant response rating, Lambsquarters: 50
[2]; [9]
  Plant response rating, Lambsquarters: 40
[2]; [10]
  Plant response rating, Lambsquarters: 90
[2]; [11]
  Plant response rating, Lambsquarters: 100
[3]; [12]
  Chickweed plant response rating: 0
[3]; [13]
  Chickweed plant response rating: 0
[3]; 250 g ai/ha
  Plant response rating, Chickweed: 0
[3]; 500 g ai/ha
  Plant response rating, Chickweed: 0
